#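 These data come from cells grown in 96-well plates and exposed to compound for 48 hours at five concentrations. TGI denotes the concentration required for complete inhibition of growth.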
# Assays:
# Assay in all cases: inhibition of tumour cell growth, NCI panel, 48 h
# [1] = tested on: SF-295 CNS
# [2] = tested on: SNB-19 CNS
# [3] = tested on: LXFL 529 NSCLC
# [4] = tested on: KM20L2 colon
# [5] = tested on: DMS 114 small cell lung
# [6] = tested on: SN12C renal
# [7] = tested on: LOX IMVI melanoma
# [8] = tested on: NCI-H226 lung
# [9] = tested on: NCI-H522 lung
# [10] = tested on: A498 renal
# [11] = tested on: U251 CNS
# [12] = tested on: SNB-78 CNS
# [13] = tested on: TK-10 renal
# [14] = tested on: SK-OV-3 ovarian
# [15] = tested on: NCI-H460 lung
# [16] = tested on: HT29 colon
# [17] = tested on: DMS 273 small cell lung
# [18] = tested on: MOLT-4 leukemia
# [19] = tested on: UACC-257 melanoma
# [20] = tested on: KM12 colon
# [21] = tested on: RXF 393 renal
# [22] = tested on: MALME-3M melanoma
# [23] = tested on: ACHN renal
# [24] = tested on: HOP-18 NSCLC
# [25] = tested on: RPMI-8226 leukemia
# [26] = tested on: OVCAR-5 ovarian
# [27] = tested on: COLO 205 colon
# [28] = tested on: NCI-H23 lung
# [29] = tested on: SR leukemia
# [30] = tested on: SF-539 CNS
# [31] = tested on: OVCAR-3 ovarian
# [32] = tested on: UO-31 renal
# [33] = tested on: 786-0 renal
# [34] = tested on: SW-620 colon
# [35] = tested on: CCRF-CEM leukemia
# [36] = tested on: CAKI-1 renal
# [37] = tested on: HOP-62 NSCLC
# [38] = tested on: OVCAR-8 ovarian
# [39] = tested on: SK-MEL-2 melanoma
# [40] = tested on: SK-MEL-5 melanoma
# [41] = tested on: SNB-75 CNS
# [42] = tested on: HCC-2998 colon
# [43] = tested on: OVCAR-4 ovarian
# [44] = tested on: M19-MEL melanoma
# [45] = tested on: IGROV1 ovarian
# [46] = tested on: M14 melanoma
# [47] = tested on: EKVX NSCLC
# [48] = tested on: HCT-15 colon
# [49] = tested on: XF 498 CNS
# [50] = tested on: SF-268 CNS
# [51] = tested on: UACC-62 melanoma
# [52] = tested on: HCT-116 colon
# [53] = tested on: HL-60(TB) leukemia
# [54] = tested on: DLD-1 colon
# [55] = tested on: A549 NSCLC
# [56] = tested on: SK-MEL-28 melanoma
smiles,measurement,setting,value
O=C(CC1(O)C(=O)Nc2c(Cl)ccc(Cl)c21)c1ccc2ccccc2c1 (stereo unspecified),TGI,[1],27.7 µM
same,TGI,[2],53 µM
same,TGI,[3],21.8 µM
same,TGI,[4],62.1 µM
same,TGI,[5],19.2 µM
same,TGI,[6],31.3 µM
same,TGI,[7],31.9 µM
same,TGI,[8],39.1 µM
same,TGI,[9],9.24 µM
same,TGI,[10],34.7 µM
same,TGI,[11],61.3 µM
same,TGI,[12],46.3 µM
same,TGI,[13],44.4 µM
same,TGI,[14],33.5 µM
same,TGI,[15],25.5 µM
same,TGI,[16],8.61 µM
same,TGI,[17],> 100 µM
same,TGI,[18],38.9 µM
same,TGI,[19],25.3 µM
same,TGI,[20],17.8 µM
same,TGI,[21],27 µM
same,TGI,[22],25.1 µM
same,TGI,[23],26.3 µM
same,TGI,[24],37.2 µM
same,TGI,[25],31 µM
same,TGI,[26],39.5 µM
same,TGI,[27],28.7 µM
same,TGI,[28],27 µM
same,TGI,[29],7.62 µM
same,TGI,[30],35.5 µM
same,TGI,[31],14.3 µM
same,TGI,[32],34.9 µM
same,TGI,[33],22.4 µM
same,TGI,[34],12.5 µM
same,TGI,[35],> 100 µM
same,TGI,[36],16.5 µM
same,TGI,[37],99.2 µM
same,TGI,[38],38.3 µM
same,TGI,[39],26.3 µM
same,TGI,[40],17.7 µM
same,TGI,[41],54 µM
same,TGI,[42],35.6 µM
same,TGI,[43],5.92 µM
same,TGI,[44],7.82 µM
same,TGI,[45],41.4 µM
same,TGI,[46],21.3 µM
same,TGI,[47],31 µM
same,TGI,[48],27 µM
same,TGI,[49],25.4 µM
same,TGI,[50],36.2 µM
same,TGI,[51],10.7 µM
same,TGI,[52],28.3 µM
same,TGI,[53],4.04 µM
same,TGI,[54],59 µM
same,TGI,[55],39.6 µM
same,TGI,[56],32.6 µM
